Assay results reported in the NIST ThermoML archive (doi:10.1016/j.jct.2016.03.026).
“And” between values parts separate entries of the source, which are not always exact repeats. Equal entries are not always repeated.

Assay: xn = mol fraction of the nth substance listed
Details: Fluid (supercritical or subcritical phases); for mass density: 293.15 K, Vibrating tube method, x1 = 0.97; for speed of sound: 298.13 K, Frequency=5 MHz, Pulse-echo method

O=C=O [carbon dioxide] + CO
Details | mass density [kg/m3]
14700 kPa | 904.75
14725 kPa | 904.95
14750 kPa | 905.15
14775 kPa | 905.36
14800 kPa | 905.48
14825 kPa | 905.68
14850 kPa | 905.88
14875 kPa | 906.06
14900 kPa | 906.27
14925 kPa | 906.44
14950 kPa | 906.59
14975 kPa | 906.77
15000 kPa | 906.96
15025 kPa | 907.15
15050 kPa | 907.32
15075 kPa | 907.46
15100 kPa | 907.6
15125 kPa | 907.83
15150 kPa | 907.99
15175 kPa | 908.18
15200 kPa | 908.32
15225 kPa | 908.49
15250 kPa | 908.66
15275 kPa | 908.85
15300 kPa | 909.03
15325 kPa | 909.22
15350 kPa | 909.37
15375 kPa | 909.52
15400 kPa | 909.68
15425 kPa | 909.89
15450 kPa | 910.03
15475 kPa | 910.14
15500 kPa | 910.23
15525 kPa | 910.31
15550 kPa | 910.48
15575 kPa | 910.7
15600 kPa | 910.88
15625 kPa | 911.01
15650 kPa | 911.21
15675 kPa | 911.37
15700 kPa | 911.59
15725 kPa | 911.74
15750 kPa | 911.86
15775 kPa | 912.03
15800 kPa | 912.19
15825 kPa | 912.36
15850 kPa | 912.52
15875 kPa | 912.75
15900 kPa | 912.9
15925 kPa | 913.04
15950 kPa | 913.17
15975 kPa | 913.37
16000 kPa | 913.55
16025 kPa | 913.66
16050 kPa | 913.83
16075 kPa | 913.99
16100 kPa | 914.15
16125 kPa | 914.31
16150 kPa | 914.45
16175 kPa | 914.56
16200 kPa | 914.73
16225 kPa | 914.89
16250 kPa | 915.05
16275 kPa | 915.22
16300 kPa | 915.38
16325 kPa | 915.54
16350 kPa | 915.71
16375 kPa | 915.87
16400 kPa | 916.03
16425 kPa | 916.2
16450 kPa | 916.37
16475 kPa | 916.52
16500 kPa | 916.75
16525 kPa | 916.93
16550 kPa | 917.01
16575 kPa | 917.25
16600 kPa | 917.37
16625 kPa | 917.58
16650 kPa | 917.7
16675 kPa | 917.9
16700 kPa | 918.08
16725 kPa | 918.24
16750 kPa | 918.41
16775 kPa | 918.57
16800 kPa | 918.73
16825 kPa | 918.9
16850 kPa | 919.06
16875 kPa | 919.22
16900 kPa | 919.43
16925 kPa | 919.55
16950 kPa | 919.71
16975 kPa | 919.95
17000 kPa | 920.08
17025 kPa | 920.29
17050 kPa | 920.44
17075 kPa | 920.59
17100 kPa | 920.73
17125 kPa | 920.92
17150 kPa | 921.1
17175 kPa | 921.27
17200 kPa | 921.4
17225 kPa | 921.53
17250 kPa | 921.7
17275 kPa | 921.85
17300 kPa | 922.01
17325 kPa | 922.18
17350 kPa | 922.33
17375 kPa | 922.5
17400 kPa | 922.71
17425 kPa | 922.85
17450 kPa | 922.99
17475 kPa | 923.17
17500 kPa | 923.34
17525 kPa | 923.48
17550 kPa | 923.64
17575 kPa | 923.77
17600 kPa | 923.94
17625 kPa | 924.11
17650 kPa | 924.26
17675 kPa | 924.4
17700 kPa | 924.55
17725 kPa | 924.7
17750 kPa | 924.87
17775 kPa | 925.03
17800 kPa | 925.19
17825 kPa | 925.35
17850 kPa | 925.49
17875 kPa | 925.61
17900 kPa | 925.82
17925 kPa | 925.93
17950 kPa | 926.13
17975 kPa | 926.25
18000 kPa | 926.42
18025 kPa | 926.56
18050 kPa | 926.67
18075 kPa | 926.86
18100 kPa | 927.05
18125 kPa | 927.16
18150 kPa | 927.35
18175 kPa | 927.46
18200 kPa | 927.66
18225 kPa | 927.75
18250 kPa | 927.94
18275 kPa | 928.06
18300 kPa | 928.22
18325 kPa | 928.38
18350 kPa | 928.5
18375 kPa | 928.68
18400 kPa | 928.85
18425 kPa | 928.95
18450 kPa | 929.11
18475 kPa | 929.27
18500 kPa | 929.45
18525 kPa | 929.53
18550 kPa | 929.71
18575 kPa | 929.88
18600 kPa | 929.97
18625 kPa | 930.13
18650 kPa | 930.29
18675 kPa | 930.46
18700 kPa | 930.61
18725 kPa | 930.69
18750 kPa | 930.86
18775 kPa | 931.01
18800 kPa | 931.17
18825 kPa | 931.25
18850 kPa | 931.43
18875 kPa | 931.59
18900 kPa | 931.74
18925 kPa | 931.9
18950 kPa | 931.99
18975 kPa | 932.14
19000 kPa | 932.3
19025 kPa | 932.45
19050 kPa | 932.6
19075 kPa | 932.74
19100 kPa | 932.87
19125 kPa | 933.01
19150 kPa | 933.14
19175 kPa | 933.29
19200 kPa | 933.42
19225 kPa | 933.56
19250 kPa | 933.7
19275 kPa | 933.83
19300 kPa | 933.97
19325 kPa | 934.1
19350 kPa | 934.24
19375 kPa | 934.38
19400 kPa | 934.51
19425 kPa | 934.64
19450 kPa | 934.79
19475 kPa | 934.91
19500 kPa | 935.12
19525 kPa | 935.24
19550 kPa | 935.36
19575 kPa | 935.49
19600 kPa | 935.62
19625 kPa | 935.75
19650 kPa | 935.88
19675 kPa | 936
19700 kPa | 936.18
19725 kPa | 936.26
19750 kPa | 936.44
19775 kPa | 936.57
19800 kPa | 936.69
19825 kPa | 936.81
19850 kPa | 936.93
19875 kPa | 937.05
19900 kPa | 937.17
19925 kPa | 937.36
19950 kPa | 937.48
19975 kPa | 937.6
20000 kPa | 937.71

Details | speed of sound
10080 kPa, x1 = 0.7534 | 529.7 m/s
14970 kPa, x1 = 0.925 | 538.3 m/s
14980 kPa, x1 = 0.7534 | 600.9 m/s
14980 kPa, x1 = 0.925 | 537.1 m/s
14990 kPa, x1 = 0.925 | 536.5 m/s and 539.1 m/s
15060 kPa, x1 = 0.8502 | 554 m/s
19950 kPa, x1 = 0.925 | 600.2 m/s
19960 kPa, x1 = 0.925 | 602.2 m/s
20000 kPa, x1 = 0.8502 | 613.8 m/s
20000 kPa, x1 = 0.925 | 599.6 m/s and 601.7 m/s
20030 kPa, x1 = 0.7534 | 657.7 m/s
24940 kPa, x1 = 0.8502 | 663.5 m/s
24970 kPa, x1 = 0.925 | 651.7 m/s
24990 kPa, x1 = 0.925 | 651.3 m/s
25000 kPa, x1 = 0.925 | 652.9 m/s and 653 m/s
29950 kPa, x1 = 0.925 | 696.6 m/s
29980 kPa, x1 = 0.925 | 696.1 m/s
29990 kPa, x1 = 0.925 | 696.8 m/s
30000 kPa, x1 = 0.8502 | 707.4 m/s
30010 kPa, x1 = 0.925 | 695.5 m/s
30030 kPa, x1 = 0.7534 | 746.7 m/s
34980 kPa, x1 = 0.7534 | 783.5 m/s
34990 kPa, x1 = 0.925 | 735.2 m/s
35000 kPa, x1 = 0.925 | 736.1 m/s
35020 kPa, x1 = 0.925 | 734.8 m/s
35060 kPa, x1 = 0.8502 | 746.3 m/s
39980 kPa, x1 = 0.925 | 771.2 m/s
39990 kPa, x1 = 0.925 | 770.5 m/s and 770.1 m/s
40000 kPa, x1 = 0.925 | 771.3 m/s
40030 kPa, x1 = 0.8502 | 780.8 m/s
